Results taken from patent US5962487A, “Antipicornaviral compounds and methods for their use and preparation” (Agouron Pharmaceuticals, Inc., priority 1997, dated 1999).
Where two headings read alike, the source gives them in different places.

Legend:
[1] = target: T1, Rhinovirus 3C protease (RVP) serotype-14 (Human rhinovirus 14, UniProt P03303); assay: Inhibition of Rhinovirus Protease, serotype 14 (FRET assay); assay type: biochemical; details: for Ki: RVP serotype-14, 10 minute preincubation with 50 nM RVP prior to addition of substrate, read-out: INHIB (Ki); for kinact/KI: read-out: kobs/I
T1 construct: Recombinant Rhinovirus 3C proteases from serotypes 14, 16, 2 or 89 were prepared; made in house
T1 sequence (P03303 1538-1719): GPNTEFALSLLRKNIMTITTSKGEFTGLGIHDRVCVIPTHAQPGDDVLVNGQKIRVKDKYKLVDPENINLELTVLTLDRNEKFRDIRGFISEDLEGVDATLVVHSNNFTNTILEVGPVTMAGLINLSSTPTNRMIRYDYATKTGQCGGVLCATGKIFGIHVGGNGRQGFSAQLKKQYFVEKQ
In short: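 Recombinant HRV 3C protease (50–100 nM) in 50 mM tris pH 7.6, 1 mM EDTA, 2% DMSO, with ~1 μM DABCYL-GRAVFQGPVG-EDANS FRET substrate; cleavage read as fluorescence increase. Ki: compound and enzyme preincubated 10 min at 30° C before substrate start; kobs/I from enzyme-start progress curves. Values are percent inhibition at stated μM, or Ki.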

[2] = target: T2, Rhinovirus 3C protease (RVP) serotype 2 (Human rhinovirus 2, UniProt P04936); assay: Inhibition of Rhinovirus Protease, serotype 2 (FRET assay); assay type: biochemical; details: enzyme start experiments, read-out: kobs/I
T2 construct: Recombinant Rhinovirus 3C proteases from serotypes 14, 16, 2 or 89 were prepared; made in house
T2 sequence (P04936 1508-1690): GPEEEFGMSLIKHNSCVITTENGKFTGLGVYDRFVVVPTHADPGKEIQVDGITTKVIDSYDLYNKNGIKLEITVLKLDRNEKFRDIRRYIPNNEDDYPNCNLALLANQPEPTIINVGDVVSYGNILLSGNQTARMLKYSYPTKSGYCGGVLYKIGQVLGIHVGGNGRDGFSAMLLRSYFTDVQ
Procedure: (§1) Stock solutions (50 mM, in DMSO) of various compounds were prepared; dilutions were in the same solvent. Recombinant Rhinovirus 3C proteases from serotypes 14, 16, 2 or 89 were prepared by the following standard chromatographic procedures: (1) ion exchange using Q Sepharose Fast Flow from Pharmacia; (2) affinity chromatography using Affi-Gel Blue from Biorad; and (3) sizing using Sephadex G-100 from Pharmacia. Assays contained 2% DMSO, 50 mM tris pH 7.6, 1 mM EDTA, a compound at the indicated concentrations, approximately 1 μM substrate, and 50-100 nM protease. For Ki determinations, the compound and the enzyme were preincubated for 10 minutes at 30° C. prior to addition of the substrate (substrate start). The kobs/I values were obtained from reactions initiated by addition of enzyme rather than substrate. RVP activity is measured in the fluorescence resonance energy transfer assay. The substrate was (N-terminal) DABCYL-(Gly-Arg-Ala-Val-Phe-Gln-Gly-Pro-Val-Gly)-EDANS. In the uncleaved peptide, the EDANS fluorescence was quenched by the proximal DABCYL moiety. When the peptide was cleaved, the quenching was relieved, and activity was measured as an increase in fluorescence signal.
(§2) In the above table, all data is for RVP serotype-14 unless otherwise noted in parentheses. All strains of human rhinovirus (HRV) were purchased from American Type Culture Collection (ATCC), except for serotype 14, which was produced from the infectious cDNA clone constructed and supplied to us by Dr. Roland Rueckert at the Institute for Molecular Virology, University of Wisconsin, Madison, Wis. The column designated INHIB represents the percent inhibition, with the concentration of the compound in μM indicated in parentheses, unless Ki was assigned as designated by (Ki), at 10 minute preincubation with 50 nM RVP prior to addition of substrate was used. The data in the column designated kobs/I was measured from progress curves in enzyme start experiments.

[3] = target: T3, Rhinovirus 3C protease (RVP) serotype 16 (Human rhinovirus 16, UniProt Q82122); assay: Inhibition of Rhinovirus Protease, serotype 16 (FRET assay); assay type: biochemical; details: enzyme start experiments, read-out: kobs/I
T3 construct: Recombinant Rhinovirus 3C proteases from serotypes 14, 16, 2 or 89 were prepared; made in house
T3 sequence (Q82122 1511-1693): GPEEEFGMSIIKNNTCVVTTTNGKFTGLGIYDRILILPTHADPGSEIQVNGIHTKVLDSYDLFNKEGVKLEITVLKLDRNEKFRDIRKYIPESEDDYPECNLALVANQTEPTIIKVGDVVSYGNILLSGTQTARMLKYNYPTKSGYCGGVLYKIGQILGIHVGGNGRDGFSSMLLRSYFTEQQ
Procedure: as §1, §2

HRV-14 = assay: Antirhinoviral HI-HeLa Cell Culture Assay (cell protection, XTT), HRV-14; assay type: cell-based, human rhinovirus; details: for TI: CC50/EC50, HRV serotype-14, 2880 min; for EC50: Rhinovirus B, HRV14, 48 h, HRV serotype-14 infected HI-HeLa cells, XTT, two days
In short: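 HI-HeLa cells infected at m.o.i. 0.13 (or mock-infected), 8×10^5 cells/mL, incubated with compounds for two days; XTT/PMS formazan read at 450/650 nm. EC50 is the concentration restoring formazan in infected cells to 50% of compound-free mock-infected; CC50 is 50% decrease in mock-infected cells; TI = CC50/EC50.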

in vitro [4] = assay type: cell-based; details: human, hi-hela cells
In short: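 HI-HeLa cells infected with HRV-14 at m.o.i. 0.13 or mock-infected, incubated with compounds for two days; XTT/PMS formazan read at 450/650 nm. EC50 as concentration restoring formazan to 50% of mock-infected level; CC50 from mock-infected cells; TI = CC50/EC50.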

CVA-21 = assay: Anticoxsackieviral HI-HeLa Cell Culture Assay, CVA-21; assay type: cell-based, Coxsackie strain A-21; details: for EC50: 24 h, CVA-21 infection of Hi-HeLa cells, XTT, one day
Procedure: (§3) The ability of compounds to protect cells against CVA-21 or CVB-3 infection was measured by the XTT dye reduction method. Briefly, HI-HeLa cells were infected with CVA-21 or CVB-3 at a multiplicity of infection (m.o.i.) of 0.05 (CVA-21) and 0.08 (CVB-3) or mock-infected with medium only. Infected or uninfected cells were resuspended at 4×10^4 cells per mL and incubated with appropriate concentrations of drug. One day later, XTT/PMS was added to test plates, and the amount of formazan produced was quantified spectrophotometrically at 450/650 nm. The EC50 was calculated as the concentration of drug that increased the percentage of formazan production in drug-treated, virus-infected cells to 50% of that produced by drug-free, uninfected cells. The 50% cytotoxic dose (CC50) was calculated as the concentration of drug that decreased the percentage of formazan produced in drug-treated, uninfected cells to 50% of that produced in drug-free, uninfected cells. The therapeutic index (TI) was calculated by dividing the CC50 by the EC50.
(§4) The Coxsackie strains A-21 (CVA-21) and B-3 (CVB-3) were purchased from American Type Culture Collection (ATCC). Virus stocks were propagated and antiviral assays were performed in HI-HeLa cells (ATCC). Cells were grown in Minimal Essential Medium with 10% fetal bovine serum.

in vitro [5] = assay type: cell-based; details: human, hi-hela cells; remark: listed apart in the source
Procedure: as §3, §4

ECHO-11 = assay: Echovirus-11 MRC5 Cell Culture Assay; assay type: cell-based, Echovirus strain 11; details: for EC50: Echovirus, 24 h, ECHO-11 infection of MRC5 cells, XTT, one day
Procedure: (§5) The Echovirus strain 11 (ECHO-11) and Enterovirus strain 70 (ENT-70) were purchased from American Type Culture Collection (ATCC). Virus stocks were propagated and antiviral assays were performed in MRC5 cells (ATCC). Cells were grown in Minimal Essential Medium with 10% fetal bovine serum.
as §3, with “ECHO-11” for “CVA-21”, “ENT-70” for “CVB-3”, “MRC5” for “HI-HeLa”, “0.0013 (ECHO-11)” for “0.05 (CVA-21)”, “0.0017 (ENT-70)” for “0.08 (CVB-3)”, “2×10^4” for “4×10^4”

ENT-70 = assay: Enterovirus-70 MRC5 Cell Culture Assay; assay type: cell-based, Enterovirus strain 70; details: for EC50: Enterovirus, 24 h, ENT-70 infection of MRC5 cells, XTT, one day
Procedure: as §5
as §3, with “ECHO-11” for “CVA-21”, “ENT-70” for “CVB-3”, “MRC5” for “HI-HeLa”, “0.0013 (ECHO-11)” for “0.05 (CVA-21)”, “0.0017 (ENT-70)” for “0.08 (CVB-3)”, “2×10^4” for “4×10^4”

in vitro [6] = assay type: cell-based; details: human, mrc5 cells
Procedure: as §5
as §3, with “ECHO-11” for “CVA-21”, “ENT-70” for “CVB-3”, “MRC5” for “HI-HeLa”, “0.0013 (ECHO-11)” for “0.05 (CVA-21)”, “0.0017 (ENT-70)” for “0.08 (CVB-3)”, “2×10^4” for “4×10^4”

MRC5 cells = assay: in vitro; assay type: cell-based
Procedure: as §5
as §3, with “ECHO-11” for “CVA-21”, “ENT-70” for “CVB-3”, “MRC5” for “HI-HeLa”, “0.0013 (ECHO-11)” for “0.05 (CVA-21)”, “0.0017 (ENT-70)” for “0.08 (CVB-3)”, “2×10^4” for “4×10^4”

HRV 1A = assay: Antirhinoviral HI-HeLa Cell Culture Assay (cell protection, XTT), HRV 1A; assay type: cell-based, human rhinovirus
Procedure: (§6) In the Cell Protection Assay, the ability of compounds to protect cells against HRV infection was measured by the XTT dye reduction method. This method is described in O. S. Weislow, R. Kiser, D. L. Fine, J. Bader, R. H. Shoemaker, and M. R. Boyd, J. Natl. Cancer Inst. 1989, 81, 577-586, which document is entirely incorporated herein by reference.
(§7) HI-HeLa cells were infected with HRV-14 (unless otherwise noted) at a multiplicity of infection (m.o.i.) of 0.13 (virus particles/cell) or mock-infected with medium only. Infected or mock-infected cells were resuspended at 8×10^5 cells per mL and incubated with appropriate concentrations of compounds of formulas I and II. Two days later, XTT/PMS was added to test plates, and the amount of formazan produced was quantified spectrophotometrically at 450/650 nm. The EC50 was calculated as the concentration of compound that increased the percentage of formazan production in compound-treated, virus-infected cells to 50% of that produced by compound-free mock-infected cells. The 50% cytotoxic dose (CC50) was calculated as the concentration of compound that decreased the percentage of formazan produced in compound-treated, mock-infected cells to 50% of that produced in compound-free, mock-infected cells. The therapeutic index (TI) was calculated by dividing the CC50 by the EC50. […]

HRV 10 = assay: Antirhinoviral HI-HeLa Cell Culture Assay (cell protection, XTT), HRV 10; assay type: cell-based, human rhinovirus
Procedure: as §6, §7

CVB-3 = assay: Anticoxsackieviral HI-HeLa Cell Culture Assay, CVB-3; assay type: cell-based, Coxsackie strain B-3; details: 24 h; CVB-3 infection of Hi-HeLa cells, XTT, one day
Procedure: as §3, §4

HI-HeLa cells = assay: in vitro; assay type: cell-based; details: human, 24 h
Procedure: as §3, §4

| Structure (SMILES) | kinact/KI [1] [M⁻¹ s⁻¹] | kinact/KI [2] [M⁻¹ s⁻¹] | kinact/KI [3] [M⁻¹ s⁻¹] | TI (HRV-14) | EC50 (HRV-14) [µM] | CC50 at 48 h (in vitro [4]) [µM] | EC50 (CVA-21) [µM] | CC50 at 24 h (in vitro [5]) [µM] | EC50 (ECHO-11) [µM] | EC50 (ENT-70) [µM] | CC50 at 24 h (in vitro [6]) [µM] | other results |
| --- | --- | --- | --- | --- | --- | --- | --- | --- | --- | --- | --- | --- |
| CCOC(=O)/C=C/[C@H](CCC(N)=O)NC(=O)[C@H](Cc1ccc(OC)cc1)N(C)C(=O)[C@H](CC(C)C)NC(=O)SCC [Compound 4] | 43800 | 541 | 2010 | 870 | 0.23 | 200 | 1.8 | 200 | 3.2 | 0.3 | 200 | Ki [1]: 2.9 µM; TI (CVA-21; CC50/EC50, CVA-21): 111; TI (ECHO-11; CC50/EC50, ECHO-11, 1440 min): 62.5; TI (ENT-70; CC50/EC50, ENT-70, 1440 min): 667; CC50 (MRC5 cells): 200 µM |
| CCOC(=O)/C=C/[C@H](CCC(N)=O)NC(=O)[C@H](Cc1ccccc1)N(C)C(=O)[C@H](CC(C)C)NC(=O)c1cc(C)on1 [Compound 59] | 108000 | – | – | > 714 | 0.14 | > 100 | – | – | – | – | – | TI (HRV 1A; CC50/EC50, HRV 1A, 2880 min): > 250; EC50 (HRV 1A; Human rhinovirus sp., HRV 1A infected HI-HeLa cells): 0.4 µM; TI (HRV 10; CC50/EC50, HRV 10, 2880 min): > 250; EC50 (HRV 10; Human rhinovirus sp., HRV 10 infected HI-HeLa cells): 0.4 µM |
| CCOC(=O)c1ccc(OCCC2CCN(c3ccc(C)nn3)CC2)cc1 [Pirodavir, reference compound] | – | – | – | > 300 | 0.03 | > 10 | > 100 | > 100 | > 100 | > 100 | > 100 | EC50 (CVB-3): > 100 µM; CC50 (HI-HeLa cells): > 100 µM; CC50 (MRC5 cells; human, mrc5 cells, 24 h): > 100 µM |
| CCOC(=O)/C(C)=C/[C@H](CCC(N)=O)NC(=O)[C@H](Cc1ccc(C)cc1)N(C)C(=O)[C@H](CCc1ccccc1)NC(=O)SCc1ccccc1 [Compound 14, Ethyl-2-Methyl-3-[Benylthiocarbonyl-L-hPhe-L-N-Me-(4-Me)-Phe-L-Gln]-E-Propenoate] | 56400 | 800 | 1800 | 49 | 0.32 | 15.8 | – | – | – | – | – | Ki [1]: 0.8 µM |
| CCOC(=O)/C=C/[C@H](CCC(N)=O)NC(=O)[C@@H]1CCCCN1C(=O)[C@H](CC(C)C)NC(=O)OCc1ccccc1 [Compound 25, Ethyl-3-[CBZ-L-Leu-L-Pip-L-Gln]-E-Propenoate] | 1470 | 1280 | 770 | > 23 | 14 | > 320 | – | – | – | – | – | – |
| CCSC(=O)N[C@@H](CC(C)C)C(=O)N(C)[C@@H](Cc1ccccc1)C(=O)N[C@H](/C=C/C(=O)N(C)OC)CCC(N)=O [Compound 36, N-Methoxy-N-Methyl-3-(Ethylthiocarbonyl-L-Leu-L-N-Me-Phe-L-Gln)-E-Propenamide] | 2000 | 400 | 750 | > 9 | 11.2 | > 100 | – | – | – | – | – | – |
| Cc1cc(CCCCCOc2c(Cl)cc(C3=NCCO3)cc2Cl)on1 [WIN 54954, reference compound] | – | – | – | > 30 | 2.13 | > 63 | > 100 | > 100 | > 100 | > 100 | > 100 | EC50 (CVB-3): > 100 µM; CC50 (HI-HeLa cells): > 100 µM; CC50 (MRC5 cells; human, mrc5 cells, 24 h): > 100 µM |
